Test results reported in PubChem BioAssay AID1996.
≈ marks a conversion by molar mass, not a printed value.

Conditions: buffer; pH 7.4; 200.0 µM

Point of comparison: `Cc1cccc(-n2c(/C=C/c3ccccn3)nc3ccccc3c2=O)c1`, solubility kinetic 0.5 µg/mL (≈ 1.47 µM). Against it:
- C=CCSc1nc(C)c(CC(=C)C)c(=O)[nH]1 — 64-fold higher, 32.2 µg/mL (≈ 136 µM)
- COc1ccccc1CNC(=O)C(c1ccccc1)c1ccccc1 — not separable, < 0.7 µg/mL
- CCn1c(C)cc(O)cc1=O — higher, > 23 µg/mL
- O=C(CNC(=O)c1ccco1)OCC(=O)c1ccc([N+](=O)[O-])cc1 — higher, > 49.8 µg/mL
- C=CCOc1ccccc1NC(=O)CN1C(=O)CNC1=O — higher, > 43.4 µg/mL
- CC(C)N1CCN(c2ccc(S(=O)(=O)N3CCOCC3)cn2)CC1 — higher, > 53.2 µg/mL
- Cc1nc2c(C)cccc2c2c1CCN2c1ccccc1F — 67-fold higher, 33.3 µg/mL (≈ 114 µM)
- CCCNC(=O)CN1C(=O)c2ccccc2Sc2ncccc21 — higher, > 49.1 µg/mL
- O=c1[nH]c(O)c(C=Nc2ccccc2Oc2ccccc2)c(=O)[nH]1 — 1.6-fold higher, 0.8 µg/mL (≈ 2.47 µM)
- CC(=O)Nc1ccc(S(=O)(=O)NCc2ccncc2)cc1 — higher, > 45.8 µg/mL
- CCOC(=O)c1oc2ccccc2c1NC(=O)c1ccco1 — 3-fold higher, 1.5 µg/mL (≈ 5.01 µM)
- COC(=O)c1sccc1NC(=O)c1cccc(F)c1 — not separable, < 0.6 µg/mL
- COC(=O)c1ccc(Nc2cc(C)nc3ccc(C)cc23)cc1.Cl — 16-fold higher, 8 µg/mL
- CC(C)(C)NC(=O)c1ccc2c(c1)CCO2 — higher, > 32.9 µg/mL
- O=C(c1ccccc1F)N1CCCc2ccccc21 — 67-fold higher, 33.4 µg/mL (≈ 131 µM)
- COc1ccc(C)cc1S(=O)(=O)n1c([N+](=O)[O-])cnc1C — higher, > 46.7 µg/mL
- CC1CCCN(c2ccc(F)cc2N)C1.Cl (configuration not stated) — 7.6-fold higher, 3.8 µg/mL
- CCN1CCCC1CNC(=O)c1cc2cc(F)ccc2[nH]1 (configuration not stated) — higher, > 43.4 µg/mL
- COCCN(C)Cc1nc(C(c2ccccc2)c2ccccc2)no1 — 75-fold higher, 37.7 µg/mL (≈ 112 µM)
- Cc1nn(C)cc1S(=O)(=O)Nc1ccc(F)c(F)c1 — higher, > 43.1 µg/mL
- CN(C)/C=N/c1nc(-c2ccc3ccccc3c2)cs1 — 32-fold higher, 16 µg/mL (≈ 56.9 µM)
- Cc1cc(OCCN2CCOCC2)ccc1C(C)C.Cl — 68-fold higher, 34.2 µg/mL
- CC(=O)c1ccn(S(=O)(=O)c2ccc(Cl)cc2)c1 — 68-fold higher, 33.9 µg/mL (≈ 119 µM)
- CCCC(=O)OC/C(O)=C(\C#N)c1nc2ccccc2[nH]1 — 65-fold higher, 32.4 µg/mL (≈ 114 µM)
- Cc1ccccc1CNC(=O)C(=O)Nc1nccs1 — 2.4-fold higher, 1.2 µg/mL (≈ 4.36 µM)
- Cc1cc2cc(CNC(=O)Cc3ccc([N+](=O)[O-])cc3)ccc2[nH]1 — 14-fold higher, 6.9 µg/mL (≈ 21.3 µM)
- O=C(N/C(=C/c1cccs1)C(=O)N1CCCC1)c1ccccc1 — 93-fold higher, 46.5 µg/mL (≈ 142 µM)
- NS(=O)(=O)c1ccc(CCNc2ccc(C(F)(F)F)cn2)cc1 — 96-fold higher, 48.1 µg/mL (≈ 139 µM)
- CN(C)CC#CCC(O)(c1ccccc1)c1ccccc1 — higher, > 41.9 µg/mL
- O=C(NCc1ccccc1)/C(=C/c1ccco1)NC(=O)c1ccco1 — higher, > 50.5 µg/mL
- CC(C)CNC1CCS(=O)(=O)C1.Cl (configuration not stated) — higher, > 34.2 µg/mL
- COc1ccc(CNC(=O)c2sccc2C)cc1 — higher, > 39.2 µg/mL
- O=C(NCc1cccnc1)c1ccc(Br)s1 — higher, > 44.6 µg/mL
- CCC(CC)C(=O)Nc1nnc(SCC(=O)NC(C)(C)C)s1 — higher, > 51.7 µg/mL
- COC1CC(C)NC(=S)N1 (configuration not stated) — higher, > 24 µg/mL
- COc1ccc(C(=O)COC(=O)CN2C(=O)C3CC=CCC3C2=O)c(OC)c1 (configuration not stated) — 120-fold higher, 57.6 µg/mL (≈ 149 µM)
- Cc1c(O)c(CN(C)C)cc2c1oc(=O)c1ccccc12 — higher, > 42.5 µg/mL
- CC1=NOC(=O)/C1=C\c1ccc2c(c1)OCO2 — 64-fold higher, 32 µg/mL (≈ 138 µM)
- COc1ccc(CCNC(=O)c2cc3cc(F)ccc3nc2C)cc1OC — 4.6-fold higher, 2.3 µg/mL (≈ 6.24 µM)
- O=C1CSC(=Nc2cccc(Cl)c2Cl)N1Cc1cccnc1 — 62-fold higher, 30.8 µg/mL (≈ 87.4 µM)
- Cc1c(C(=O)NCC(c2ccco2)N2CCCC2)sc2ccccc12 (configuration not stated) — higher, > 53.2 µg/mL
- Cc1cccc(C)c1NC(=O)c1c[nH]c2ccccc12 — higher, > 39.6 µg/mL
- O=C(CCCOC(=O)c1cccnc1Cl)c1ccc(Br)cc1 — 13-fold higher, 6.6 µg/mL (≈ 17.2 µM)
- CCOC(=O)COc1cc2oc(=O)cc(C)c2cc1[N+](=O)[O-] — 6-fold higher, 3 µg/mL (≈ 9.76 µM)
- CCOc1ccc(-c2nc(CCl)cs2)cc1OC.Cl — 54-fold higher, 27.2 µg/mL
- O=C(c1ccccc1)c1cccc[n+]1[O-] — higher, > 29.9 µg/mL
- CC1CCN(CCC(=O)Nc2ccc(F)c(F)c2)CC1 — higher, > 42.3 µg/mL
- O=C(CC(Nc1ccc(Cl)cc1Cl)C(=O)O)c1ccccc1 (configuration not stated) — 100-fold higher, 50 µg/mL (≈ 148 µM)
- O=C(O)CCCC(=O)Nc1ccc2c(c1)oc1ccccc12 — higher, > 44.6 µg/mL
- Fc1ccc(CNC(=S)NCc2cccc(Cl)c2)cc1 — 54-fold higher, 27.2 µg/mL (≈ 88.1 µM)
- [Cl-].c1ccc(CNc2cccc[nH+]2)cc1 — higher, > 33.1 µg/mL
- N#Cc1cc([N+](=O)[O-])ccc1N1CCN(c2ccccc2O)CC1 — 4.8-fold higher, 2.4 µg/mL (≈ 7.4 µM)
- O=C(COc1ccc(S(=O)(=O)N2CCCC2)cc1)N1CCCCC1 — 95-fold higher, 47.6 µg/mL (≈ 135 µM)
- CC(NC(=O)c1ccc(F)cc1)C1CC2CCC1C2 (configuration not stated) — 14-fold higher, 6.9 µg/mL (≈ 26.4 µM)
- C=CCn1c(O)c(C(C)=Nc2ccc3c(c2)CCC3)c(=O)[nH]c1=O — 1.6-fold higher, 0.8 µg/mL (≈ 2.46 µM)
- Cc1ccc(NC(=O)C2CC(=O)N(C(C)c3ccccc3)C2)cc1 (configuration not stated) — higher, > 48.4 µg/mL
- O=C(Nc1ccncc1)Nc1cccc(F)c1 — higher, > 34.7 µg/mL
- O=C(NCc1ccccn1)Nc1ccc(Br)cc1 — 30-fold higher, 14.9 µg/mL (≈ 48.7 µM)
- CCOC(=O)c1c(NC(=S)N2CCOCC2)sc(C)c1C — lower, < 0.4 µg/mL
- Fc1ccc(NC(=S)NCc2ccccc2)cc1 — higher, > 39 µg/mL
- COc1cc(/C=C/C(=O)OCC(=O)NC(C)c2ccccc2)cc(OC)c1OC (configuration not stated) — 110-fold higher, 54.9 µg/mL (≈ 137 µM)
- O=C(NCC(=O)N1CCN(c2ccccc2)CC1)c1ccco1 — higher, > 47 µg/mL
- Cc1cccc(Nc2ccccc2C(=O)O)c1C — higher, > 36.2 µg/mL
- CN(c1ccccc1)S(=O)(=O)c1cccc(C(=O)OCC(=O)NCc2ccccc2)c1 — 22-fold higher, 11.1 µg/mL (≈ 25.3 µM)
- CC(C)(C)NC(=O)COC(=O)C1c2ccccc2Oc2ccccc21 — 98-fold higher, 48.9 µg/mL (≈ 144 µM)
- O=C(c1ccccc1)C1CCN(C(=O)c2ccco2)CC1 — 83-fold higher, 41.6 µg/mL (≈ 147 µM)
- C/C(=C\c1ccccc1)C(=O)Nc1ccc(Cl)cn1 — 14-fold higher, 7.2 µg/mL (≈ 26.4 µM)
- Cc1cc2nccc(-c3ccncc3)n2n1 — higher, > 31.5 µg/mL
- COc1cccc(CSc2nc(N)cc(N)n2)c1 — 57-fold higher, 28.6 µg/mL (≈ 109 µM)
- COc1ccc(NC(=O)c2scc(S(=O)(=O)C(C)C)c2N)cc1 — 91-fold higher, 45.5 µg/mL (≈ 128 µM)
- CCOC(=O)c1c(N=CN(C)C)c2cc([N+](=O)[O-])cnc2n1C — 70-fold higher, 35 µg/mL (≈ 110 µM)
- COc1ccc(OC)c(NC(=O)Nc2ccc3c(c2)OCO3)c1 — 4.6-fold higher, 2.3 µg/mL (≈ 7.27 µM)
- Cc1csc(C(=O)O)c1NC(=O)c1c(Cl)cccc1Cl — 81-fold higher, 40.7 µg/mL (≈ 123 µM)
- O=c1[nH]cnc2c1c(-c1ccccc1)cn2-c1cccc(Cl)c1 — 1.7-fold lower, 0.3 µg/mL (≈ 0.932 µM)
- CN(C)c1cccc(N(C)C)c1CNC(=O)NC(=O)c1c(F)cccc1F — 1.7-fold lower, 0.3 µg/mL (≈ 0.797 µM)
- COC(=O)c1ccccc1NC(=O)COC(=O)[C@H](C)NC(N)=O — higher, > 48.5 µg/mL
- O=C(Nc1ccccc1F)Nc1cccnc1Cl — 16-fold higher, 7.8 µg/mL (≈ 29.4 µM)
- NC(=O)c1ccsc1NC(=O)COC(=O)/C=C/c1ccccc1[N+](=O)[O-] — 8.6-fold higher, 4.3 µg/mL (≈ 11.5 µM)
- O=C(NC1CCCc2ccccc21)C1CCCC1 (configuration not stated) — 55-fold higher, 27.3 µg/mL (≈ 112 µM)
- Nc1ccc(-c2nc3ncccc3o2)cc1 — higher, > 31.7 µg/mL
- O=C(Cc1ccsc1)Nc1cc(F)ccc1F — higher, > 38 µg/mL
- O=C(/C=C/c1ccc([N+](=O)[O-])s1)N1CCCCC1 — higher, > 39.9 µg/mL
- CC1CCN(C(=O)Cn2cc([N+](=O)[O-])ccc2=O)c2ccccc2S1 (configuration not stated) — higher, > 53.9 µg/mL
- CC(C)CC(C)NC(=O)c1ccc(C(F)(F)F)cc1 (configuration not stated) — 9.8-fold higher, 4.9 µg/mL (≈ 17.9 µM)
- CCOC(=O)C1(Cc2ccccc2)C(=O)Nc2ccccc21 (configuration not stated) — 74-fold higher, 37.1 µg/mL (≈ 126 µM)
- CC(C)(C)c1ccccc1NC(=O)CN1C(=O)NC2(CCCC2)C1=O — 12-fold higher, 6.1 µg/mL (≈ 17.8 µM)
